The record followed here is patent US9809621B2, “Stable peptide-based PACE4 inhibitors” (SOCPRA SCIENCES SANTÉ ET HUMAINES S.E.C., priority 2011, dated 2017).

Where “and” joins values, the source holds several entries; their conditions need not be identical. Equal entries are not always repeated. Where two headings read alike, the source gives them in different places. Peptide text beside a SMILES is read from it. * marks the point of attachment. NH(4-amidinobenzyl) = N=C(N)c1ccc(CN*)cc1; X2 = N=C(N)NC/C=C/CN*

The subject of data set [1] is DU145 cells. Description: Stability following incubation with DU145 cells. The format is in vitro ADME, human. As to the method:
(§1) Multiple multi-Leu variants described in Table 1 were tested for their stability following incubation with DU145 cells, wherein their cellular stability and plasmatic half-life was measured.
(§2) Consequently, the multi-Leu peptide was further modified by the addition of amino acid analogues and/or with pseudo peptide bounds which increase the protection of the modified peptides from peptidase and protease degradation. Gains in stability were also measured in vitro in tumoral prostatic human cells (DU145). Increase in stability of the variants was also measured in vivo (FIG. 4).

The next data set has as its target T1, PACE4 (Homo sapiens, UniProt P29122).
T1 sequence (P29122 150-969): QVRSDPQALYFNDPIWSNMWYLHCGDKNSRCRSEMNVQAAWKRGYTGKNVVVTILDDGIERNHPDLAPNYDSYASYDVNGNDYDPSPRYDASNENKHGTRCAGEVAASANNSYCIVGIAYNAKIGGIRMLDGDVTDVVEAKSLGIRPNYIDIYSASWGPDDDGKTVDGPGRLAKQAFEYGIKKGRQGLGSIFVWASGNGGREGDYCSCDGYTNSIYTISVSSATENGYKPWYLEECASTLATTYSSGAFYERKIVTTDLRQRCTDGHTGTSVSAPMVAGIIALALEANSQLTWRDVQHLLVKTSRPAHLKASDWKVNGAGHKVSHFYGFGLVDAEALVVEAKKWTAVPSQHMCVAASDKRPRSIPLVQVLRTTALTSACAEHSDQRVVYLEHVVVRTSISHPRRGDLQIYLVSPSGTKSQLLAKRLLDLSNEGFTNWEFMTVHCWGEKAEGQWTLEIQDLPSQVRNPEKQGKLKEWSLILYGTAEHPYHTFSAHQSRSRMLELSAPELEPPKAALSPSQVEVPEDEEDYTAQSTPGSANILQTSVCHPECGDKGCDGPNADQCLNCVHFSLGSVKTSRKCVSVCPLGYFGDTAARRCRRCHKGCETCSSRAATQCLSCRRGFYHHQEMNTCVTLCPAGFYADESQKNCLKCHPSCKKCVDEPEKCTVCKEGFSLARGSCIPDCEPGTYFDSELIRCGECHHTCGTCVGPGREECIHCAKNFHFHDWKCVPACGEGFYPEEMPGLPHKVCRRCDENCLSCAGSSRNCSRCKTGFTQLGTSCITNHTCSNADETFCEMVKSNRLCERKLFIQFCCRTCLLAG
As to the kind of experiment: Inhibition constant (Ki) for PACE4. It is filed as biochemical.

The target in the next data set is furin (Homo sapiens, UniProt P09958). Description: Inhibition constant (Ki) for furin. The format is biochemical.
Chain of furin (P09958 108-794): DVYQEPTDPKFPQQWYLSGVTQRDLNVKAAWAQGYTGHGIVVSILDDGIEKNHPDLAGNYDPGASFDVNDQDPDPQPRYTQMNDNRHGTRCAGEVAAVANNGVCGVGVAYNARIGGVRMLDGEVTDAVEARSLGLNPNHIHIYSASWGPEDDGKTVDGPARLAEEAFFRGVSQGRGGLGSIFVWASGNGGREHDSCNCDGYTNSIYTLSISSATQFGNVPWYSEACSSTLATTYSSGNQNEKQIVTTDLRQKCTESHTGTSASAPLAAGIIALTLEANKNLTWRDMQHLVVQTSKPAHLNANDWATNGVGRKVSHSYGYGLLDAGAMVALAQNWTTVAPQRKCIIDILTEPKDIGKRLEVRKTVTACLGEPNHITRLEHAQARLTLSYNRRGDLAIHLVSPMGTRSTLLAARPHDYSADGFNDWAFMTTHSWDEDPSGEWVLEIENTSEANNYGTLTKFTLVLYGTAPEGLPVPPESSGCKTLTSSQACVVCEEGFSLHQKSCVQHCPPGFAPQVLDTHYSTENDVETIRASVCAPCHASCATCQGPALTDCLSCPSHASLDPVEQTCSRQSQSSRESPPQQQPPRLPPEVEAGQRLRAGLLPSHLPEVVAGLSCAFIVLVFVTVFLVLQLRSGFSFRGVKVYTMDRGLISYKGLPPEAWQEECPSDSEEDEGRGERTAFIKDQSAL
Data set [2] can be described thus: Stability following incubation with DU145 cells. It is filed as in vitro ADME, human. As to conditions: human, DU145 cells, Table 1, read-out: Stability (% remaining after 48 h). The method, then:
as §1, §2

A short description of data set [3]: Plasmatic half-life / degradation by plasmatic protease. The format is in vitro ADME. As to conditions: for half-life: plasma. The method, then: as §1
Stabilisation strategy for multi-Leu variants was also assessed in presence of plasmatic protease. 8 variants protected at their N-terminal leucines were tested in order to establish their level of degradation since it is expected that N-terminal degradation will occur in absence of any modifications other than acetylation. Variants tested with azaβ3-leucine at each individual position and “click” bonds between the different leucines of the N-terminal part of the variants were protected against degradation (see FIG. 3 for modifications).

The test system of a further data set is PC3 cells. Description: MTT proliferation assay in PC3 cells. The settings on record: FIG. 1B. The format is cell-based. (In general: Tetrazolium dyes change colour on reduction, which living cells bring about.)
Data set [4] relates to LNCaP cells. The settings on record: MTT.
For data set [5], the system named is LNCaP cells. Description: Cell cycle analysis (DNA content, flow cytometry) of LNCaP cells. The format is cell-based. As to conditions: for Cell cycle effect (in words): 100 μM or 200 μM, FIG. 11; for Cells in G0/G1 phase / Cells in G2/M phase / Cells in S phase / Cells in Sub-G1 (hypodiploid DNA content, apoptotic): 96 hours. As to the method: In order to obtain further support for the antiproliferation effects observed, a DNA content analysis was performed on LNCaP treated cells with 100 μM or 200 μM of ML-peptide and the modified analog […] (FIG. 11). […] Following a 200 μM treatment with the Ac-[D-Leu]LLLRVKR-NH2, a 10% increase in the G0/G1 population was observed along with an increased in cells with hypodiploid DNA content (sub-G1) proportions, which represent apoptotic cells.
To perform cell cycle analysis on LNCaP, 4×10^5 cells are seeded in 10 cm culture dish and grown for 24 hours without treatment. Cells are then treated with vehicle (0.1% DMSO) or with 100 μM or 200 μM of peptides Ac-LLLLRVKR-NH2 or Ac-[D-Leu]LLLRVKR-NH2. Treatments are carried out in complete medium (10% FBS) for a period of 96 hours and cell media is changed every 24 hours to offset peptide degradation. Cells are harvested using trypsin, washed once with PBS, resuspended in 0.5 mL PBS and fixed by drop wise addition of 1.5 mL of ice-cold ethanol. After a 30 minutes incubation at room temperature, cells are washed with PBS and DNA staining is performed in 20 mM HEPES pH 7.2, 0.16M NaCl, 1 mM EGTA buffer containing 10 μg/mL of RNAseA and 10 μg/mL of propidium iodine.
Flow cytometry is performed using a FACScan™ cytometer (Becton Dickinson, Mountain View, Calif.) equipped with a 15 mW argon ion laser tuned at 488 nm. A minimum of 10 000 gated events by sample are acquired. Forward and side scatter signals are used to establish the live gate to exclude debris and cell clumps and a second live gate is set using the FL3-A and FL3-W parameters of the doublet discrimination module (DDM), allowing single cell measurements. The percentages of cells in different phases of cell cycle are calculated by ModFit software (Verity Software House, Topsham, Me.).
(In general: Flow cytometry measures light scatter and fluorescence of single cells or particles in a stream.)

Data set [6] deals with DU145 cells. The settings on record: MTT.
The nature of the next data set: Fig. 4. From the text: Table printed on a drawing sheet, Fig. 4
The patent's description of the figure: FIG. 4 illustrates plasmatic half-life curves measured for multi-Leu variants tested.
First reader's note: The table also serves as legend for the numbered curves of the adjacent plot; the unit (h) and ± errors stand in the cells, with decimal commas as printed.

In a further data set the test system is LNCaP tumors. Description: Intratumoral treatment of LNCaP tumors in immunosuppressed mice. As to conditions: LNCaP tumors, FIG. 9.
[7] abbreviates: read-out: IC50 (μM) DU145, Table 4, DU145 cells.

Take `CC(=O)N[C@@H](CC(C)C)C(=O)N[C@@H](CC(C)C)C(=O)N[C@@H](CC(C)C)C(=O)N[C@@H](CC(C)C)C(=O)N[C@@H](CCCN=C(N)N)C(=O)N[C@H](C(=O)N[C@@H](CCCCN)C(=O)NCc1ccc(C(=N)N)cc1)C(C)C` [ML-[AMBA]^P1, Ac-LLLLRVK-[AMBA]] (Ac-LLLLRVK-{NH(4-amidinobenzyl)}): the “Stability (% remaining after 48 h)” value in the data set with DU145 cells [1] (Table 1) and with DU145 cells [1] (Table 2) was “≃80%” in each case.
The term Ki denotes the dissociation constant of the complex between target and ligand, obtained from inhibition or displacement. Usually amount remaining stands for the share of the starting amount still present when the sample was taken. Regarding `CC(=O)N[C@@H](CC(C)C)C(=O)N[C@@H](CC(C)C)C(=O)N[C@@H](CC(C)C)C(=O)N[C@@H](CC(C)C)C(=O)N[C@@H](CCCNC(=N)N)C(=O)N[C@H](C(=O)N[C@@H](CCCCN)C(=O)NC/C=C/CNC(=N)N)C(C)C` [ML-[ΔR-CO2]^P1, Ac-LLLLRVK-[ΔR-COO]] (Ac-LLLLRVK-X2), the “Selectivity for PACE4 over furin (time more selective)” value at PACE4 came to 11.4. Moreover, the Ki on PACE4 (Table 1, read-out: Ki for PACE4) amounted to 14 nM; on furin (Table 3, read-out: Ki Furin), 160 nM. The “Selectivity index PACE4/furin” value at PACE4 (Table 3) is given as 11.4. In addition, the “Stability (% remaining after 48 h)” value with DU145 cells [1] (Table 2) is 70%. Further, in data set [2], the share remaining at 48 h stood at 70%.
Usually half-life stands for how long it takes for the measured level to halve. Higher therefore signals slow decline. Consider “Ac-LLLLRVKR-NH2 [Multi-Leu (ML), Ac-LLLLRVKR-NH2, reference compound]”, for which the Ki on PACE4 (Ki for PACE4, Table 1) worked out at 38 nM; at furin, 722 nM. The “Selectivity index PACE4/furin” value at PACE4 (Table 3) is reported as 19. In addition, the half-life in data set [3] (Table 1) and in data set [3] (Table 2) was 2.1 ± 0.2 h each time. Also, the “Inhibition of PC3 cell proliferation (in words)” value in the data set on PC3 cells is recorded as “very poor inhibition”. The IC50 was 180 ± 57 µM with LNCaP cells [4] (read-out: IC50 cellular proliferation LNCaP, FIG. 1B/1D); 187 ± 44 µM with DU145 cells [6] (setting [7]); 103 ± 29 µM in the data set on DU145 cells [6] (read-out: IC50 cellular proliferation DU145, FIG. 1B/1C). The “Cell cycle effect (in words)” value with LNCaP cells [5] was “dose-dependant G0/G1 accumulation and S phase decrease”. Further, the “Cells in G0/G1 phase” value with LNCaP cells [5] (100 μM) was 79.7 ± 0.4%; in the data set with LNCaP cells [5] (200 μM), 81.5 ± 0.0%. Also, the “Cells in G2/M phase” value with LNCaP cells [5] (100 μM) was found to be 8.4 ± 0.6%; in the data set with LNCaP cells [5] (200 μM) it was 9.2 ± 0.1%. Also, the figures for the “Cells in S phase” value in the data set with LNCaP cells [5] (100 μM) and in the data set with LNCaP cells [5] (200 μM) were 11.9 ± 0.2% and 9.3 ± 0.1%, respectively. Besides, the figures for the “Cells in Sub-G1 (hypodiploid DNA content, apoptotic)” value in the data set with LNCaP cells [5] (100 μM) and in the data set on LNCaP cells [5] (200 μM) were 1.0 ± 0.0% and 4.8 ± 1.7%, respectively. Moreover, the “Stability (% remaining after 48 h)” value with DU145 cells [1] (Table 2) worked out at 56%. In addition, in data set [2], the fraction remaining at 48 h worked out at 56%.
In the case of Ac-LLLLRVKR-NH2 [6: ML], the plasmatic half-life in “Fig. 4” is reported as 2,1±0,2h.
Consider `CC(=O)N[C@H](CC(C)C)C(=O)N[C@@H](CC(C)C)C(=O)N[C@@H](CC(C)C)C(=O)N[C@@H](CC(C)C)C(=O)N[C@@H](CCCNC(=N)N)C(=O)N[C@H](C(=O)N[C@@H](CCCCN)C(=O)N[C@@H](CCCNC(=N)N)C(N)=O)C(C)C` [[D-Leu]^P8-ML, Ac-[D-Leu]-LLLRVKR-NH2], for which the Ki on PACE4 (Ki PACE4 (nM), Table 3) was 3 nM; at PACE4 (Ki for PACE4, Table 1), 52 nM and 33 nM; at furin, 516 nM. The “Selectivity index PACE4/furin” value on PACE4 (Table 3) is reported as “≈20”. The molecule further came in with a plasmatic half-life in data set [3] (Table 1) of 6.3 h. The half-life is around 9 h in data set [3] (Table 1) and 6.3 h in data set [3] (Table 2). Besides, the IC50 with LNCaP cells [4] (read-out: IC50 (μM) LNCaP, Table 4, LNCaP cells) worked out at 181 ± 59 µM; in the data set on DU145 cells [6] (setting [7]), 66 ± 26 µM. Further, the “Cell cycle effect (in words)” value with LNCaP cells [5] is “dose-dependant G0/G1 accumulation and S phase decrease”. The “Cells in G0/G1 phase” value with LNCaP cells [5] (100 μM) was 79.3 ± 1.0%; with LNCaP cells [5] (200 μM), 83.4 ± 0.0%. Also, the entries for the “Cells in G2/M phase” value with LNCaP cells [5] (100 μM) and in the data set on LNCaP cells [5] (200 μM) were 8.9 ± 0.5% and 8.3 ± 0.1%, respectively. The “Cells in S phase” value came to 11.8 ± 0.5% in the data set with LNCaP cells [5] (100 μM) and 8.4 ± 0.1% in the data set with LNCaP cells [5] (200 μM). Moreover, the “Cells in Sub-G1 (hypodiploid DNA content, apoptotic)” value came to 0.4 ± 0.6% with LNCaP cells [5] (100 μM) and 11.8 ± 2.7% with LNCaP cells [5] (200 μM). The “Cells with hypodiploid DNA content (sub-G1) proportions (in words)” value in the data set with LNCaP cells [5] (200 μM treatment) was “increased”. Further, the “Increase in the G0/G1 population” value with LNCaP cells [5] (200 μM treatment) amounted to 10%. For the same molecule, the amount remaining at 48 h in data set [2] worked out at 48%. Also, in the data set with LNCaP tumors, the “Plasmatic concentration of PSA (in words)” value is given as “decreased”.
